In patent publication US20190030009A1, “COMPOUNDS AND COMPOSITIONS FOR THE TREATMENT OF CRYPTOSPORIDIOSIS” (Novartis AG, priority 2016, published 2019):

Assays:
Cryptosporidium parvum = assay: Cytopathic effect (CPE) based assay, C. parvum infected HCT-8 cells; settings: HCT-8 host cell viability (CellTiter-Glo), 48 hours treatment, read-out: Cp CPE EC50
Experimental: Human ileocecal colorectal adenocarcinoma cells (HCT-8 [HRT-18] ATCC, CCL-34) were maintained in T-175 flasks (Corning, 431080) in complete growth medium (RPMI-1640 medium (Gibco, 11875) supplemented with 10% heat-inactivated horse serum (Gibco, 26050), 1×MEM non-essential amino acids (Gibco, 11140), 10 mM HEPES (Gibco, 15630), 100 units/mL penicillin, and 100 units/mL streptomycin) at 37° C. and 5% CO2 in a humidified incubator. Cultures were passaged twice weekly using 10 mL of 1×Phosphate-Buffered Saline (PBS) without Ca^2+ and Mg^2+ (Gibco, 20012) for washing and 3-5 mL per T-175 flask of TrypLE Express Enzyme (Gibco, 12604) for dissociation of adherent cells.
Cryptosporidium parvum oocysts purchased from the Sterling Laboratory, University of Arizona (Iowa isolate) were purified from infected calf feces using discontinuous sucrose and cesium chloride centrifugation gradients and stored in PBS solution containing 0.01% Tween 20, 100 units/mL penicillin and 100 units/mL gentamicin.
Excystation and infection protocols were developed following established methods with some modifications (Gut & Nelson, 1999, Upton et aL, 1995, Bessoff et aL, 2013). Briefly, oocysts were primed in 1 mL of 10 mM hydrochloric acid in 1× Hank's Balanced Salt Solution (HBSS) (Gibco, 14025) for 10 minutes with agitation at 1000 rpm, 37° C. on an Eppendorf thermomixer, then washed twice with 1 mL of room temperature non-acidic 1× HBSS by centrifugation at 13,000 rpm for 3 minutes at 25° C. Primed oocysts were further excysted at a concentration of 1×10^6 oocysts/μL in parasite infection medium consisting of a pre-warmed and pre-gassed 1:1 formulation of Leibovitz's L-15 medium (Gibco, 11415) and UltraCULTURE medium (Lonza, 12-725F) supplemented with 2 mM sodium taurocholate (Sigma, 86339-1), 10% heat-inactivated horse serum, and 200 μM L-ascorbic acid (Sigma, 95210) at 25° C. for 10 minutes. HCT-8 monolayer cells were infected with excysted cryptosporidium at a specified multiplicity of infection (MOI). All dilutions for subsequent assays were performed in parasite infection medium without sodium taurocholate. Pre-excysted oocysts were enumerated microscopically using a C-Chip disposable hemocytometer (NanoEnTek, DHC-N01).
Compound powders were dissolved in neat DMSO (Fisher, D4121) to 10 mM and stored at 4° C. prior to dilution into source plates. Dilutions were carried out using a Microlab STAR liquid handler (Hamilton) to obtain compound source plates containing the ten-point or eight-point three fold dilutions starting from 10 mM in duplicates. Source plates were stored at 4° C. prior to spotting into assay plates. Before administration, all compound source plates were equilibrated to room temperature. A specified volume of compounds from source plate were spotted to assay plate using an Echo Acoustic liquid handler (LABCYTE, 550) so that the final DMSO concentration was less than 0.5%. Each assay plate a specified number of DMSO-treated negative control wells and a well-studied potent active compound at 100 nM as positive control. As a quality control, all positive and negative-control wells were used to calculate a Z′-value and signal to noise ratio (S:N) for each plate.
Cryptosporidium spp are obligate-intracellular parasites that infect intestinal epithelial cells and the host cell is killed upon parasite egress. […] The loss of epithelial cells is due to both rapid parasite invasion/multiplication/egress and also pro-inflammatory immune response (Adams et al., 1994, Griffiths et al., 1994). We have observed a consistent cytopathic effect (CPE) in HCT-8 cells with C. spp infection the loss of viability of the host cells using CellTiter-Glo reagent.
Confluent HCT-8 cells in T-175 flasks were directly infected with excysted oocysts at an MOI (host to parasite) of 1:2 for C. parvum and 1:4 for C. hominis. The number of host-cells is determined using a NucleoCounter (Chemometec, NC-100) in a control flask. […]

[1] = Cytotoxicity against HepG2; format: cell-based; settings: human, HepG2 cells (ATCC HB-8065), 5 days exposure
Experimental: Cytotoxicity against HepG2 (ATCC# HB-8065), a human liver cancer cell line, was determined as previously described earlier (Manjunatha et al., 2015). Briefly, cells were seeded at a density of 10^5 cells per well, incubated at 37° C. for 24 h and exposed to two-fold serially-diluted compounds for 5 days. Cell viability was monitored using the Cell Proliferation Kit II (Invitrogen). The cytotoxicity values of selected compounds are reported in the fifth column [HepG2 CC50 (μM)] of Table II.

| SMILES | EC50 (Cryptosporidium parvum) | CC50 at 5 days [1] |
| --- | --- | --- |
| CCN(C(=O)c1ccn2ncc(-c3ccc(S(=O)(=O)NC)cc3)c2c1)c1ccc(C#N)cn1 [Example 140] | 10.3 µM | 26.1 µM |
| CN(C(=O)c1ccn2ncc(-c3ccc(C(=O)NCCO)cc3)c2c1)c1ccc(C#N)cn1 [Example 102] | 0.399 µM | 38.5 µM |
| CN(C(=O)c1ccn2ncc(-c3ccc(C(F)(F)F)cc3)c2c1)c1ccc(C#N)cn1 [Example 13] | 1.54 µM | > 50 µM |
| CNC(=O)c1ccc(-c2cnn3ccc(N(C(=O)c4ccc(C#N)cn4)C4CC4)cc23)cc1 [Example 147] | > 20 µM | 32.7 µM |
| CNC(=O)c1ccc(-c2cnn3ccc(C(=O)N(c4ccc(C#N)cc4)C4CC4)cc23)cc1 [Example 118] | 0.026 µM | 5.9 µM |
| CNC(=O)c1ccc(-c2cnn3ccc(C(=O)N(c4ccc(C#N)cn4)C(C)C)cc23)nc1 [Example 154] | 0.964 µM | 45.7 µM |
| NC(=O)c1ccc(-c2cnn3ccc(C(=O)N4CCOc5cc(F)ccc54)cc23)cc1 [Example 71] | 0.571 µM | 1.82 µM |
| CNCCNC(=O)c1ccc(-c2cnn3ccc(C(=O)N(C)c4ccc(C#N)cn4)cc23)cc1 [Example 114] | 9.13 µM | 5.52 µM |
| CNC(=O)c1ccc(-c2cnn3ccc(C(=O)N(c4ccc(C)cn4)C4CC4)cc23)cc1 [Example 136] | 0.43 µM | 6.32 µM |
| CNC(=O)c1ccc(-c2cnn3ccc(C(=O)N(c4ccc(C#N)cn4)C4CCC4)cc23)cn1 [Example 144] | 1.79 µM | 7.69 µM |
| CNC(=O)c1ccc(-c2cnn3ccc(C(=O)N(CCO)c4ccc(C#N)cc4)cc23)cc1 [Example 110] | > 20 µM | 23.8 µM |
| CNC(=O)c1ccc(-c2cnn3ccc(C(=O)N(c4ccc(C(F)(F)F)cn4)C(C)C)cc23)cn1 [Example 152] | 0.456 µM | 14.9 µM |
| N#Cc1ccc(N(C2CC2)S(=O)(=O)c2ccn3ncc(-c4ccc(C(N)=O)cc4)c3c2)nc1 [Example 165] | 0.607 µM | 6.37 µM |
| CN(C(=O)c1ccn2ncc(-c3cnc(N)c(C#N)c3)c2c1)c1ccc(C#N)cn1 [Example 85] | 0.639 µM | 30.4 µM |
| Cc1ccc(N(C)C(C)c2ccn3ncc(-c4ccc(C(N)=O)cc4)c3c2)nc1 (centres unmarked) [Example 65] | 5.12 µM | 2.28 µM |
| CCN(C(=O)c1ccn2ncc(-c3ccc(C(=O)NC)cc3)c2c1)c1ccc(C#N)c(OCCO)n1 [Example 162] | – | 24.4 µM |
| CNC(=O)c1ccc(-c2cnn3ccc(C(=O)N(C)c4ccc(OC)nc4)cc23)cc1 [Example 122] | > 20 µM | 15.8 µM |
| CNC(=O)c1ccc(-c2cnn3ccc(C(=O)N(c4ccc(C#N)cc4)C4CC4)cc23)nc1 [Example 141] | 0.344 µM | 20.8 µM |
| CNC(=O)c1ccc(-c2cnn3ccc(C(=O)N(C)c4ccc(Cl)cc4)cc23)cc1 [Example 99] | 0.018 µM | 6.51 µM |
| CNC(=O)c1ccc(-c2cnn3ccc(C(=O)N(c4ccc(C(=O)O)cn4)C4CC4)cc23)cc1 [Example 128] | > 20 µM | > 50 µM |
| CNC(=O)c1ccc(-c2cnn3ccc(C(=O)N(c4ccc(F)cn4)C4CC4)cc23)cc1 [Example 125] | 0.709 µM | 25.5 µM |
| CCN(C(=O)c1ccn2ncc(-c3ccc(C(=O)NC)nc3)c2c1)c1ccc(F)cn1 [Example 159] | 5.37 µM | 9.81 µM |
| CN(C(=O)c1ccn2ncc(-c3ccc(C(N)=O)cc3)c2c1)C1CCC(C#N)CC1 (centres unmarked) [Example 82] | > 20 µM | > 50 µM |
| CNC(=O)c1ccc(-c2cnn3ccc(C(=O)N(c4ccc(C#N)cn4)C4CC4)cc23)cc1 [Example 93] | 0.152 µM | 28.1 µM |
| CNC(=O)c1ccc(-c2cnn3ccc(C(=O)N(c4ccc(Cl)cc4)C4CC4)cc23)cc1 [Example 116] | 0.007 µM | 3.01 µM |

| SMILES | EC50 (Cryptosporidium parvum) | CC50 at 5 days [1] |
| --- | --- | --- |
| CNC(=O)c1ccc(-c2cnn3ccc(C(=O)N(c4ccc(C(F)(F)F)cn4)C4CCC4)cc23)cn1 [Example 161] | 0.775 µM | 1.22 µM |
| CN(C(=O)c1ccc(C(F)(F)F)cn1)c1ccn2ncc(-c3ccc(C(F)(F)F)cc3)c2c1 [Example 38] | 4.71 µM | – |
| CN(C(=O)c1ccc(C2CC2)cc1)c1ccn2ncc(-c3ccc(C(F)(F)F)cc3)c2c1 [Example 50] | > 20 µM | – |
| Fc1ccc(CCc2ccn3ncc(-c4ccc(C(F)(F)F)cc4)c3c2)cc1 [Example 16] | > 20 µM | – |
| CNC(=O)c1ccc(-c2cnn3ccc(C(=O)N4c5ccc(F)cc5OCC4C)cc23)cc1 (centres unmarked) [Example 74] | 1.24 µM | – |
| Cc1ccc(N(C)C(=O)c2ccn3ncc(-c4ccc(C(F)(F)F)cc4)c3c2)nc1 [Example 5] | > 20 µM | – |
| CC(=O)Nc1ccc(-c2cnn3ccc(C(=O)N(C)c4ccc(C#N)cn4)cc23)cc1 [Example 69] | 0.201 µM | – |
| CNC(=O)c1ccc(-c2cnn3ccc(C(=O)N(c4ccc(C#N)cn4)C4COC4)cc23)cc1 [Example 76] | > 20 µM | – |
| CN(C(=O)c1ccn2ncc(-c3ccc(C(F)(F)F)cc3)c2c1)c1ccc(F)cc1 [Example 4] | 6.78 µM | – |
| CN(Cc1ccn2ncc(-c3ccc(C(F)(F)F)cc3)c2c1)c1ccc(F)cc1 [Example 2] | > 20 µM | – |
| Fc1ccc(CNc2ccn3ncc(-c4ccc(C(F)(F)F)cc4)c3c2)cc1 [Example 35] | > 20 µM | – |
| CN(C(=O)c1ccn2ncc(-c3ccc(C(N)=O)cn3)c2c1)c1ccc(C#N)cn1 [Example 61] | 17.8 µM | – |
| CN(C(=O)c1ccn2ncc(-c3cnc(Cl)c(NS(C)(=O)=O)c3)c2c1)c1ccc(C#N)cn1 [Example 107] | – | 39.7 µM |
| CN(C(=O)c1ccn2ncc(-c3ccc(C(F)(F)F)cn3)c2c1)c1ccc(C#N)cn1 [Example 25] | 2.3 µM | – |
| CN(C(=O)c1ccc(C(F)(F)F)nc1)c1ccn2ncc(-c3ccc(C(F)(F)F)cc3)c2c1 [Example 37] | 3.79 µM | – |
| CN(C(=O)c1ccn2ncc(-c3ccc(C(F)(F)F)cc3)c2c1)c1ccc(C(F)(F)F)cn1 [Example 33] | 1.51 µM | – |
| [O-][S+](Cc1ccn2ncc(-c3ccc(C(F)(F)F)cc3)c2c1)c1ccc(F)cc1 (centres unmarked) [Example 22] | > 20 µM | – |
| N#Cc1ccc(C(=O)N(CC2CCOCC2)c2ccn3ncc(-c4ccc(C(F)(F)F)cc4)c3c2)cc1 [Example 39] | > 20 µM | – |
| C[C@H](N)C(=O)Nc1ccc(-c2cnn3ccc(C(=O)N(C)c4ccc(C#N)cc4)cc23)cc1 [Example 26] | 0.142 µM | – |
| CN(C(=O)c1ccn2ncc(-c3cnc4[nH]ccc4c3)c2c1)c1ccc(C#N)cc1 [Example 40] | 0.074 µM | – |
| CN(C(=O)c1ccn2ncc(-c3ccc(C(N)=O)cc3)c2c1)c1ccc(C(F)(F)F)cn1 [Example 62] | 0.028 µM | – |
| CNC(=O)c1ccc(-c2cnn3ccc(S(=O)(=O)N(c4ccc(C#N)cn4)C4CC4)cc23)cc1 [Example 164] | – | 6.98 µM |
| Cc1ccc(N(C)Cc2ccn3ncc(-c4ccc(C(F)(F)F)cc4)c3c2)nc1 [Example 7] | > 20 µM | – |
| CN(Cc1ccc(F)cc1)c1ccn2ncc(-c3ccc(C(F)(F)F)cc3)c2c1 [Example 36] | > 20 µM | – |
